Results taken from EP0745595A1, “3-(3-Aryloxyphenyl)-1-(substituted methyl)-s-triazine-2,4,6-oxo or thiotrione herbicidal agents” (American Cyanamid Company, priority 1995, dated 1996).

How the values were obtained:
Assay type in all cases: in vivo
[1] = system: IPOMOEA SPP.; test: Preemergence herbicidal evaluation, IPOSS (Morningglory spp.); details: four to five weeks after treatment
How it was run: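 This preemergence greenhouse test scored herbicidal effect on morningglory planted in pint cups, with seed mixed into potting soil and placed over about one inch of soil. After treatment the cups were watered and kept under conventional care. At four to five weeks, plant stand, vigor, malformation, size, chlorosis and overall appearance were compared with a control and rated 0-9.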

[2] = system: ORYZA SATIVA, L. CV. KOSHIHIKARI; test: Post-transplant rice evaluation under flooded paddy conditions (Example 43), ORYSAK (Rice, Koshihikari); parameters: key: visual rating on a 0-9 scale, compared with control; details: applied three days after transplanting rice, 25 to 30 days after treatment
Experimental: (§1) Results of herbicide evaluation are expressed on a rating scale (0-9). The scale is based upon a visual observation of plant stand, vigor, malformation, size, chlorosis and overall plant appearance as compared with a control.
(§2) In this example, Deluvian paddy soil (Toyokawa paddy soil) is placed in plastic pots, 100cm^2 x 9 cm in depth. Water is added to the level of the soil surface in the pot and the mixture is paddled 3 cm in depth.
(§3) Pots are then variously sown with monocotyledenous weed seeds and tubers at 0-2 cm in soil depth, as well as transplanted rice plants at the 2.5 leaf stage. The rice plants are transplanted at about 3 cm soil depth. Water is then added to all of the pots to 3 cm deep and kept at a depth of 3 cm for the duration of the test. Test compounds are applied in the manner described in Example 42 three days after transplanting the rice plants and sowing the weed seeds and tubers. The pots are then placed on greenhouse benches and cared for in the conventional manner. Tests are examined at 25 to 30 days after treatment and rated according to the rating system provided in Example 40. The compounds evaluated are reported by compound number given in Example 40.

[3] = system: ABUTILON THEOPHRASTI, MEDIC.; test: Postemergence herbicidal evaluation, ABUTH (Velvetleaf); details: rated four to five weeks after treatment, averaged
How it was run: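 This postemergence herbicide test used two-week-old velvetleaf seedlings grown in jiffy flats. Each compound was sprayed at 40 psi as a dispersion in 50/50 acetone/water with 0.5% TWEEN®20 surfactant. Plants then received routine greenhouse care. After four to five weeks, injury was scored visually on a 0-9 scale against a control, and replicate tests were averaged.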

[4] = system: ABUTILON THEOPHRASTI, MEDIC.; test: Preemergence herbicidal evaluation, ABUTH (Velvetleaf); details: four to five weeks after treatment
How it was run: (§4)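 Preemergence, greenhouse: seed + potting soil sown on ~1 inch soil in cups; aqueous acetone spray, ~0.125–0.50 kg/ha equivalent; rated 0-9 vs control at 4–5 wk.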

[5] = system: GALIUM APARINE; test: Preemergence herbicidal evaluation, GALAP (Galium); details: four to five weeks after treatment
How it was run: as §4

[6] = system: SCIRPUS JUNCOIDES; test: Preemergence evaluation in the presence of transplanted rice under flooded paddy conditions (Example 43), SCPJU (Bulrush, Japanese); parameters: key: visual rating on a 0-9 scale, compared with control; details: applied three days after sowing, 25 to 30 days after treatment
Experimental: as §1, §2, §3

[7] = system: […]; test: Preemergence evaluation in the presence of transplanted rice under flooded paddy conditions (Example 43), MOOVA (Monochoria); details: applied three days after sowing, 25 to 30 days after treatment
Experimental: as §1, §2, §3

[8] = system: SAGITTARIA PYGMAEA; test: Preemergence evaluation in the presence of transplanted rice under flooded paddy conditions (Example 43), SAGPY (Arrowhead (Pygmaea)); parameters: key: visual rating on a 0-9 scale, compared with control; details: applied three days after sowing, 25 to 30 days after treatment
Experimental: as §1, §2, §3

[9] = system: ORYZA SATIVA, L. TEBONNET; test: Rice tolerance to post-transplant applications under flooded paddy conditions, ORYSAT (Rice, Tebonnet); details: post-transplant rice, rated three to four weeks after treatment;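 further: applied to flooded soil surface three days after transplanting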
How it was run: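 Rated on a visual 0–9 scale against untreated plants 3–4 weeks after application, rice (cv. Tebonnet) tolerance was tested by applying compounds (approx. 0.5–0.063 kg/ha, acetone/water 50/50) to flooded soil three days post-transplant, water kept 1.5–3 cm deep.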

[10] = system: IPOMOEA SPP.; test: Postemergence herbicidal evaluation, IPOSS (Morningglory spp.); details: rated four to five weeks after treatment, averaged
How it was run: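 In this greenhouse postemergence herbicide test on Ipomoea spp. (morningglory), compounds in 50/50 acetone/water with 0.5% TWEEN®20 were sprayed at 40 psi onto seedlings about two weeks old grown in jiffy flats. After four to five weeks, injury was scored on a 0-9 scale covering stand, vigor, malformation, size, chlorosis and overall appearance versus control, with repeat tests averaged.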

[11] = system: CHENOPODIUM ALBUM, L.; test: Preemergence herbicidal evaluation, CHEAL (Lambsquarters, Common); details: four to five weeks after treatment
How it was run: as §4

[12] = system: CHENOPODIUM ALBUM, L.; test: Postemergence herbicidal evaluation, CHEAL (Lambsquarters, Common); details: rated four to five weeks after treatment, averaged
How it was run: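 Postemergence herbicidal activity on Chenopodium album was tested by spraying two-week-old seedlings grown in jiffy flats with compound in acetone/water (50/50) plus 0.5% TWEEN®20, using a 40 psi nozzle. Four to five weeks after treatment, stand, vigor, malformation, size, chlorosis and overall appearance were scored 0-9 relative to controls, with repeat tests averaged.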

[13] = system: CYPERUS DIFFORMIS; test: Preemergence evaluation in the presence of transplanted rice under flooded paddy conditions (Example 43), CYPDI (Flatsedge, smallflower); parameters: key: visual rating on a 0-9 scale, compared with control; details: applied three days after sowing, 25 to 30 days after treatment
Experimental: as §1, §2, §3

[14] = system: CYPERUS SEROTINUS, ROTTB.; test: Preemergence weed control under flooded paddy conditions, CYPSE (Flatsedge); details: preemergence weeds, rated three to four weeks after treatment
How it was run: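 Visual 0-9 rating against untreated control, covering stand, vigor, malformation, size and chlorosis, scored three to four weeks post-treatment in a greenhouse. Application was into 1.5-3 cm flood water over silt loam sown at 0.5 cm. The 50/50 v/v aqueous/acetone doses were about 0.5, 0.25, 0.125 and 0.063 kg/ha.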

[15] = system: ECHINOCHLOA CRUS-GALLI; test: Preemergence evaluation in the presence of transplanted rice under flooded paddy conditions (Example 43), ECHCG (Barnyard Grass); parameters: key: visual rating on a 0-9 scale, compared with control; details: applied three days after sowing, 25 to 30 days after treatment
Experimental: as §1, §2, §3

## CCOC(=O)Cn1c(=O)[nH]c(=O)n(-c2cc(Oc3ccc(C(F)(F)F)cc3Cl)ccc2[N+](=O)[O-])c1=O [Compound 5, Ethyl 3-{5-[(2-chloro-α,α,α-trifluoro-p-tolyl)oxy]-2-nitrophenyl}tetrahydro-2,4,6-trioxo-s-triazine-1(2H)-acetate]
[1]; Rate 0.125 kg/ha
  IPOSS rating: 9.0
[1]; Rate 0.250 kg/ha
  IPOSS rating: 9.0
[1]; Rate 0.500 kg/ha
  IPOSS rating: 9.0
[2]; 0.032 kg/ha
  Herbicidal effect rating, ORYSAK: 0.0
[2]; 0.063 kg/ha
  Herbicidal effect rating, ORYSAK: 0.0
[2]; 0.125 kg/ha
  Herbicidal effect rating, ORYSAK: 2.0
[2]; 0.250 kg/ha
  Herbicidal effect rating, ORYSAK: 2.0
[3]; Rate 0.125 kg/ha
  ABUTH, herbicide rating (0-9): 9.0
[3]; Rate 0.250 kg/ha
  ABUTH, herbicide rating (0-9): 9.0
[3]; Rate 0.500 kg/ha
  ABUTH, herbicide rating (0-9): 9.0
[4]; Rate 0.125 kg/ha
  ABUTH rating: 9.0
[4]; Rate 0.250 kg/ha
  ABUTH rating: 9.0
[4]; Rate 0.500 kg/ha
  ABUTH rating: 9.0
[5]; Rate 0.125 kg/ha
  GALAP rating: 9.0
[5]; Rate 0.250 kg/ha
  GALAP rating: 9.0
[5]; Rate 0.500 kg/ha
  GALAP rating: 9.0
[6]; 0.032 kg/ha
  Herbicidal effect rating, SCPJU: 4.0
[6]; 0.063 kg/ha
  Herbicidal effect rating, SCPJU: 6.0
[6]; 0.125 kg/ha
  Herbicidal effect rating, SCPJU: 9.0
[6]; 0.250 kg/ha
  Herbicidal effect rating, SCPJU: 9.0
[7]; 0.032 kg/ha
  Herbicidal effect rating, MOOVA: 9.0
[7]; 0.063 kg/ha
  Herbicidal effect rating, MOOVA: 9.0
[7]; 0.125 kg/ha
  Herbicidal effect rating, MOOVA: 9.0
[7]; 0.250 kg/ha
  Herbicidal effect rating, MOOVA: 9.0
[8]; 0.032 kg/ha
  Herbicidal effect rating, SAGPY: 1.0
[8]; 0.063 kg/ha
  Herbicidal effect rating, SAGPY: 3.0
[8]; 0.125 kg/ha
  Herbicidal effect rating, SAGPY: 9.0
[8]; 0.250 kg/ha
  Herbicidal effect rating, SAGPY: 8.0
[9]; Rate 0.063 kg/ha
  ORYSAT herbicidal rating (rice tolerance): 3.0
[9]; Rate 0.125 kg/ha
  ORYSAT herbicidal rating (rice tolerance): 4.3
[9]; Rate 0.250 kg/ha
  ORYSAT herbicidal rating (rice tolerance): 5.0
[9]; Rate 0.500 kg/ha
  ORYSAT herbicidal rating (rice tolerance): 5.3
[10]; Rate 0.125 kg/ha
  IPOSS, herbicide rating (0-9): 9.0
[10]; Rate 0.250 kg/ha
  IPOSS, herbicide rating (0-9): 9.0
[10]; Rate 0.500 kg/ha
  IPOSS, herbicide rating (0-9): 9.0
[11]; Rate 0.125 kg/ha
  CHEAL rating: 9.0
[11]; Rate 0.250 kg/ha
  CHEAL rating: 9.0
[11]; Rate 0.500 kg/ha
  CHEAL rating: 9.0
[12]; Rate 0.125 kg/ha
  CHEAL, herbicide rating (0-9): 8.0
[12]; Rate 0.250 kg/ha
  CHEAL, herbicide rating (0-9): 8.0
[12]; Rate 0.500 kg/ha
  CHEAL, herbicide rating (0-9): 8.0
[13]; 0.032 kg/ha
  Herbicidal effect rating, CYPDI: 8.0
[13]; 0.063 kg/ha
  Herbicidal effect rating, CYPDI: 9.0
[13]; 0.125 kg/ha
  Herbicidal effect rating, CYPDI: 9.0
[13]; 0.250 kg/ha
  Herbicidal effect rating, CYPDI: 9.0
[14]; Rate 0.125 kg/ha
  CYPSE herbicidal rating: 9.0
[14]; Rate 0.250 kg/ha
  CYPSE herbicidal rating: 9.0
[14]; Rate 0.500 kg/ha
  CYPSE herbicidal rating: 9.0
[15]; 0.032 kg/ha
  Herbicidal effect rating, ECHCG: 8.0
[15]; 0.063 kg/ha
  Herbicidal effect rating, ECHCG: 8.0
[15]; 0.125 kg/ha
  Herbicidal effect rating, ECHCG: 8.0
[15]; 0.250 kg/ha
  Herbicidal effect rating, ECHCG: 9.0
